Data taken from the supplement of paper PMC6045584.
± gives the standard deviation of the averaged measurements.

Experiments:
MLN-4924 = compound: NS(=O)(=O)OC[C@@H]1C[C@@H](n2ccc3c(N[C@H]4CCc5ccccc54)ncnc32)C[C@@H]1O [MLN-4924]; test: surviving fraction relative to DMSO-only wells; higher = less growth inhibition; settings: exposure time: 5 days
In short: (§1)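 Inhibitors at 0.5, 1, 5, 10, 50, 100, 500 and 1000 nM were applied continuously for five days to tumour cell lines seeded in log phase at 250–500 cells per well in 384-well plates 24 hours earlier. Viability was measured by CellTiter-Glo luminescence and expressed as surviving fraction relative to the median of DMSO-only wells. Luminescence was taken after 10 minutes at room temperature.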

[1] = compound: COc1cc2ncnc(Nc3ccc(F)c(Cl)c3)c2cc1NC(=O)/C=C/CN1CCCCC1; test: as above; settings: exposure time: 5 days
In short: as §1

Test System	surviving fraction (MLN-4924; 0.5 nM)	surviving fraction (MLN-4924; 1 nM)	surviving fraction (MLN-4924; 5 nM)	surviving fraction (MLN-4924; 10 nM)	surviving fraction (MLN-4924; 50 nM)	surviving fraction (MLN-4924; 100 nM)	surviving fraction (MLN-4924; 500 nM)	surviving fraction (MLN-4924; 1000 nM)	surviving fraction ([1]; 0.5 nM)	surviving fraction ([1]; 1 nM)	surviving fraction ([1]; 5 nM)	surviving fraction ([1]; 10 nM)	surviving fraction ([1]; 50 nM)	surviving fraction ([1]; 100 nM)	surviving fraction ([1]; 500 nM)	surviving fraction ([1]; 1000 nM)
SG27 HEADNECK	1.07 ± 0.041	1.1 ± 0.12	1.11 ± 0.055	1.16 ± 0.13	0.991 ± 0.17	0.823 ± 0.076	0.618 ± 0.098	0.322 ± 0.055	1.06 ± 0.071	1.16 ± 0.22	0.944 ± 0.14	0.937 ± 0.07	0.927 ± 0.014	1.01 ± 0.061	0.988 ± 0.015	0.864 ± 0.024
SG28 HEADNECK	1.16 ± 0.16	1.16 ± 0.03	1.153 ± 0.0099	1.1 ± 0.032	0.726 ± 0.076	0.614 ± 0.1	0.296 ± 0.024	0.24 ± 0.0099	0.962 ± 0.064	0.924 ± 0.058	0.626 ± 0.026	0.54 ± 0.013	0.514 ± 0.029	0.494 ± 0.025	0.375 ± 0.037	0.238 ± 0.019
SG31 HEADNECK	1.21 ± 0.15	1.37 ± 0.22	1.06 ± 0.24	1.12 ± 0.14	0.671 ± 0.12	0.553 ± 0.062	0.247 ± 0.0062	0.198 ± 0.034	0.973 ± 0.13	0.87 ± 0.19	0.617 ± 0.16	0.624 ± 0.086	0.556 ± 0.14	0.519 ± 0.07	0.486 ± 0.1	0.524 ± 0.021
SG32 HEADNECK	1.17 ± 0.11	1.05 ± 0.14	1.36 ± 0.08	1.28 ± 0.16	1.04 ± 0.044	0.797 ± 0.051	0.277 ± 0.023	0.186 ± 0.018	1.24 ± 0.15	0.962 ± 0.098	0.846 ± 0.018	0.958 ± 0.046	0.819 ± 0.071	0.865 ± 0.029	0.695 ± 0.061	0.301 ± 0.034
SG43 HEADNECK	1.15 ± 0.29	1 ± 0.32	1.02 ± 0.26	1.15 ± 0.18	0.885 ± 0.19	1.11 ± 0.15	0.463 ± 0.094	0.223 ± 0.087	0.807 ± 0.14	0.929 ± 0.044	0.529 ± 0.18	0.341 ± 0.057	0.199 ± 0.018	0.226 ± 0.022	0.281 ± 0.095	0.196 ± 0.057
SIHA CERVIX	1.04 ± 0.11	1.07 ± 0.057	1.16 ± 0.099	1.22 ± 0.092	0.81 ± 0.086	0.611 ± 0.077	0.377 ± 0.021	0.312 ± 0.026	1.05 ± 0.12	0.994 ± 0.043	1.02 ± 0.082	1.1 ± 0.074	1.04 ± 0.11	1.06 ± 0.11	0.862 ± 0.055	0.672 ± 0.067
SJSA1 BONE	0.247 ± 0.017	1.7 ± 0.13	1.68 ± 0.098	1.57 ± 0.046	1.64 ± 0.17	1.8 ± 0.063	1.62 ± 0.033	1.73 ± 0.071	1.04 ± 0.071	1.08 ± 0.072	1.05 ± 0.053	1.09 ± 0.016	1.1 ± 0.043	1.14 ± 0.074	1.04 ± 0.072	1.01 ± 0.03
SKBR3 BREAST	1.01 ± 0.067	1.06 ± 0.12	1.11 ± 0.083	1.01 ± 0.062	0.187 ± 0.015	0.14 ± 0.01	0.159 ± 0.017	0.175 ± 0.011	0.879 ± 0.038	0.983 ± 0.089	0.522 ± 0.041	0.471 ± 0.03	0.195 ± 0.0032	0.161 ± 0.017	0.145 ± 0.018	0.105 ± 0.018
SNU475 LIVER	0.976 ± 0.031	1.04 ± 0.031	1.04 ± 0.023	1.04 ± 0.062	1.12 ± 0.059	1.08 ± 0.046	0.663 ± 0.036	0.53 ± 0.012	0.967 ± 0.017	0.96 ± 0.017	0.92 ± 0.037	0.927 ± 0.086	0.897 ± 0.022	0.895 ± 0.05	0.698 ± 0.038	0.481 ± 0.028
SUM44 BREAST	1.22 ± 0.37	1.27 ± 0.4	1.27 ± 0.33	1.23 ± 0.36	0.785 ± 0.24	0.63 ± 0.22	0.486 ± 0.13	0.495 ± 0.17	1.01 ± 0.028	1.03 ± 0.031	1.01 ± 0.05	1.01 ± 0.053	1.03 ± 0.06	1.07 ± 0.018	0.916 ± 0.044	0.727 ± 0.0096
SUM149 BREAST	1.08 ± 0.13	1.01 ± 0.16	1.09 ± 0.13	1.056 ± 0.0092	0.86 ± 0.073	0.555 ± 0.046	0.0803 ± 0.017	0.066 ± 0.003	1.03 ± 0.095	1.03 ± 0.061	0.851 ± 0.04	0.747 ± 0.044	0.515 ± 0.056	0.395 ± 0.091	0.362 ± 0.013	0.341 ± 0.071
SUM149.B1*.S BREAST	1.13 ± 0.076	1.09 ± 0.063	1.09 ± 0.021	1.08 ± 0.031	1.002 ± 0.0051	0.675 ± 0.057	0.107 ± 0.0071	0.0892 ± 0.0075	1.06 ± 0.066	1.03 ± 0.035	1.02 ± 0.02	1.03 ± 0.043	0.962 ± 0.026	0.977 ± 0.036	0.833 ± 0.026	0.914 ± 0.043
SUM159 BREAST	1.11 ± 0.039	1.07 ± 0.043	1.08 ± 0.023	1.07 ± 0.017	1.05 ± 0.018	1.01 ± 0.012	0.75 ± 0.022	0.433 ± 0.02	1.08 ± 0.076	1.14 ± 0.16	1.1 ± 0.14	1.13 ± 0.2	1.06 ± 0.065	0.931 ± 0.14	1.01 ± 0.052	0.984 ± 0.017
SYO1 SYNOVIAL	0.996 ± 0.05	0.996 ± 0.029	1.01 ± 0.039	0.992 ± 0.03	0.65 ± 0.019	0.334 ± 0.028	0.0614 ± 0.0023	0.0519 ± 0.0031	0.9794 ± 0.0088	0.993 ± 0.068	0.91 ± 0.023	0.929 ± 0.048	0.971 ± 0.055	0.974 ± 0.039	0.784 ± 0.018	0.422 ± 0.022
T47D BREAST	1.04 ± 0.012	1.02 ± 0.021	0.916 ± 0.036	0.835 ± 0.037	0.67 ± 0.023	0.694 ± 0.011	0.279 ± 0.019	0.27 ± 0.028	1.03 ± 0.044	1.11 ± 0.045	1.07 ± 0.041	1.04 ± 0.027	1.043 ± 0.0096	1.07 ± 0.034	1.05 ± 0.05	1.02 ± 0.046
U2OS BONE	1.028 ± 0.0045	1.01 ± 0.015	0.988 ± 0.04	1.03 ± 0.049	1.04 ± 0.036	0.859 ± 0.022	0.403 ± 0.028	0.176 ± 0.015	1.03 ± 0.023	1.03 ± 0.025	1.02 ± 0.025	1.01 ± 0.038	1.04 ± 0.015	1.06 ± 0.027	0.906 ± 0.033	0.798 ± 0.034
VCAP PROSTATE	0.977 ± 0.06	1.08 ± 0.074	1.08 ± 0.15	0.926 ± 0.035	0.526 ± 0.029	0.401 ± 0.088	0.198 ± 0.046	0.169 ± 0.079	0.95 ± 0.04	0.769 ± 0.036	0.967 ± 0.08	1.04 ± 0.12	1.04 ± 0.048	0.996 ± 0.14	0.725 ± 0.078	0.406 ± 0.025
VP229 BREAST	1.07 ± 0.16	1.08 ± 0.19	1.17 ± 0.028	1.14 ± 0.22	1.04 ± 0.033	0.891 ± 0.12	0.233 ± 0.082	0.127 ± 0.022	1.02 ± 0.1	1.18 ± 0.056	0.663 ± 0.12	0.638 ± 0.086	0.306 ± 0.011	0.287 ± 0.026	0.2307 ± 0.00058	0.191 ± 0.029
YAMATO SYNOVIAL	1.33 ± 0.091	1.25 ± 0.019	1.33 ± 0.085	1.31 ± 0.21	1.21 ± 0.11	0.805 ± 0.058	0.637 ± 0.041	0.492 ± 0.045	1.23 ± 0.053	1.29 ± 0.18	1.3 ± 0.02	1.45 ± 0.17	1.31 ± 0.095	1.39 ± 0.068	1.31 ± 0.16	1.27 ± 0.077
ZR751 BREAST	1.23 ± 0.056	1.08 ± 0.17	1.13 ± 0.13	1.24 ± 0.036	1.06 ± 0.13	1.03 ± 0.092	0.784 ± 0.11	0.669 ± 0.063	1.07 ± 0.11	0.919 ± 0.043	0.791 ± 0.018	0.859 ± 0.076	0.762 ± 0.095	0.768 ± 0.04	0.625 ± 0.056	0.415 ± 0.087
